Values of other authors in US20260021105A1, “METHOD FOR TREATING PSORIASIS” (Reviva Pharmaceuticals, Inc., priority 2023, published 2026).

Experiments:
5-HT2A = 5-HT2A (Homo sapiens, UniProt P28223); conditions: as a weak partial agonist or neutral antagonist
5-HT2B/7 = conditions: as an antagonist
[1] = biological target: serotonin transporter (SERT) (Homo sapiens, UniProt P31645)
5-HT1A receptors = biological target: T1, 5-HT1A receptors (Homo sapiens, UniProt P08908); conditions: as partial agonist
T1 sequence (P08908 1-422): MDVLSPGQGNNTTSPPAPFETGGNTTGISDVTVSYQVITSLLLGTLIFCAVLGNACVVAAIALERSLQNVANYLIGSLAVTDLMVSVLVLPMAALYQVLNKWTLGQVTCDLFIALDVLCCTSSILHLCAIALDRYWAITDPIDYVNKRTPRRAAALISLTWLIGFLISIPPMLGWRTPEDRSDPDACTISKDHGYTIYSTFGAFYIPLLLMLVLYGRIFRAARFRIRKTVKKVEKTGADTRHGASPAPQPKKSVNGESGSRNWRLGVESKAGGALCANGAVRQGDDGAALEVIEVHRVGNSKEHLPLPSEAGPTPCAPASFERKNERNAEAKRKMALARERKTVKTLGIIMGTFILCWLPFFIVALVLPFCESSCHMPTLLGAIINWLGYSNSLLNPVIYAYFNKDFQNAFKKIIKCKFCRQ

D2-4 receptors = conditions: as partial agonist

5-HT2A, sequence (P28223 whole entry, species assumed): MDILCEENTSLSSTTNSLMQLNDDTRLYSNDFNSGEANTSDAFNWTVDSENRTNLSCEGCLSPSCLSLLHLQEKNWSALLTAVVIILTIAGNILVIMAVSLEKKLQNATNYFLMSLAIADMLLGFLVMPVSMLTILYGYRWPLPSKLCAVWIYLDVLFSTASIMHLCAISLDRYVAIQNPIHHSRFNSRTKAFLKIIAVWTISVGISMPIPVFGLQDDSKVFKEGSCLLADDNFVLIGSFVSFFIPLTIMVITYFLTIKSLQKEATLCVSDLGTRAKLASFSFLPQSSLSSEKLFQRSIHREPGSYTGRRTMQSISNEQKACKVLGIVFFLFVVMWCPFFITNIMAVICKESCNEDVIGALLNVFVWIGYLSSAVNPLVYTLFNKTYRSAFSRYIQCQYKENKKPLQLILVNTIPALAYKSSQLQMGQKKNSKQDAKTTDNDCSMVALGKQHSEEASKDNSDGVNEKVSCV
serotonin transporter (SERT), sequence (P31645 whole entry, species assumed): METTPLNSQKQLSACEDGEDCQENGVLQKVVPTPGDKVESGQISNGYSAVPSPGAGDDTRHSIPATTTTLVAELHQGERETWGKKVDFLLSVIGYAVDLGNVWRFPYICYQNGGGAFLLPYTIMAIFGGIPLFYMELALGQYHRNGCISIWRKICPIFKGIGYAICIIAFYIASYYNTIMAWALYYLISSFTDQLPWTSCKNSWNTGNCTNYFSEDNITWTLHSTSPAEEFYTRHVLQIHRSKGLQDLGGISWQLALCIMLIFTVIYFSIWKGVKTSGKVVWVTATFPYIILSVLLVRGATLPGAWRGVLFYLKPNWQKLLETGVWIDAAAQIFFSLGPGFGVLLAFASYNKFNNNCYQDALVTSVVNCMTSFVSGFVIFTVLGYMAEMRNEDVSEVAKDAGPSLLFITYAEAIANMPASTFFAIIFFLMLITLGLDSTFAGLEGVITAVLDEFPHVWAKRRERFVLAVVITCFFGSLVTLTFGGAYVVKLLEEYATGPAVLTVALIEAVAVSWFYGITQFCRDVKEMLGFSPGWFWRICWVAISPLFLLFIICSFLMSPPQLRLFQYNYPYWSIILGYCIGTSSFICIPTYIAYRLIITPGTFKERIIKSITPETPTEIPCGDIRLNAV

Which binding affinity (5-HT2A) does the source give for `O=C1COc2ccc(OCCCCN3CCN(c4cccc(Cl)c4Cl)CC3)cc2N1` [Brilaroxazine] here?
Its binding affinity is “high binding affinity”.

What about the binding affinity (5-HT2B/7) of the same compound?
The binding affinity was “high binding affinity”.

And the affinity [1]?
The affinity was “moderate affinity”.

And the binding affinity (5-HT1A receptors)?
Its binding affinity is “high binding affinity”.

What about the binding affinity (D2-4 receptors) of the same compound?
Its binding affinity is “high binding affinity”.
